Data taken from patent publication US11197893B2, “Pure platelet-rich plasma (P-PRP) composition for treatment of subclinical mastitis and methods of producing and using the same” (Universidad de Caldas, priority 2016, dated 2021).

Legend:
[1] = Somatic cell count (LnSCC) in milk of treated cows; type: in vivo; conditions: days 21, 22, 47, 48 vs day 0; FIG. 7
Text: Two individual composite milk samples were aseptically collected from each cow during the first visit to the herd in order to select the cows to be treated for subclinical mastitis. These milk samples were refrigerated and submitted to Universidad de Caldas for analysis, with one of the samples being used for analysis of subclinical mastitis using an automated cell counter (FOSSOMATIC, from Foss, Hillerod, Denmark). The subclinical mastitis results were expressed as the natural log (LnSCC), in thousands/mL to normalize the data distribution. […]
Cure was defined at the cow level. […] Cure risk was statistically assessed for initial treatment (samples taken at days 21 and 22) and treatment of refractory cases samples (samples taken at days 47 and 48), independently. […]
The statistical analyses of LnSCC and the milk concentration of IL-1, IL-2, IL-4, IL-6, IL-8, IFN-γ, and TNF-αresults were done using linear regression. […] The linear regression model used was: y=intercept+treatment+herd+parity+LnSCC+error [4] where y corresponds to LnSCC after treatment on days 21 and 47 for cows treated one or two times, respectively, and the milk concentrations of IL-1, IL-2, IL-4, IL-6, IL-8, IFN-γ, and TNF-α, which were measured only at days 0 and 21. […]

[2] = tested on: Gram-positive major pathogens; experiment: Non-inferiority randomized clinical trial: bacteriological cure in cows with subclinical mastitis; type: in vivo
Experimental: (§1) A non-inferiority randomized clinical trial was conducted, following methodology described in Schukken et al., “Noninferiority Trial Comparing a First-Generation Cephalosporin With a Third-Generation Cephalosporin in the Treatment of Nonsevere Clinical Mastitis in Dairy Cows,” J. Dairy Sci. 96(10): 6763-74 (2013). […] Ha: [Rcure(cefquinome)−Rcure(P-PRP)]>−Δ [2] where “Rcure”is the cure risk and “Δ” is the non-inferiority margin. Results were interpreted according to the principles for a non-inferiority trial (Piaggio et al., “Reporting of Noninferiority and Equivalence Randomized Trials: Extension of the CONSORT 2010 Statement,” JAMA 308(24): 2594-604 (2012); Schukken et al. (2013)).
The milk samples were streaked onto agar plates containing 5% sheep blood and 0.1% esculin. The agar plates were incubated at 37.5° C. and visually inspected at 24 hours and 48 hours for bacterial growth. Morphology and Gram staining were used for initial identification. A catalase test was used to differentiate staphylococci from streptococci, and a coagulase test was performed on catalase-positive cocci to confirm presence of Staphylococcus aureus. Gram-positive and catalase-negative cocci were differentiated by their reaction to the hydrolysis of esculin under ultraviolet light. The Christie, Atkins, Munch-Petersen (CAMP) test and esculin reaction were used to differentiate Streptococcus agalactiae and Streptococcus dysgalactiae, and esculin reaction and culture in enterococcosel agar (from Becton-Dickinson, Durham, N.C., USA) were used to identify Streptococcus uberis. Their morphology and Gram staining were used to identify Corynebacterium species. Growth in McConckey agar and further biochemical tests, such as citrate, indole, oxidase and motility, were used to identify coliforms. Those cultures that presented more than two bacterial species were considered contaminated and not informative of intramammary infection. […]

Streptococcus agalactiae = experiment: Non-inferiority trial: bacteriological cure, Strep. agalactiae infections; type: in vivo, cows
Experimental: as §1
(§2) The milk samples were streaked onto agar plates containing 5% sheep blood and 0.1% esculin. The agar plates were incubated at 37.5° C. and visually inspected at 24 hours and 48 hours for bacterial growth. Morphology and Gram staining were used for initial identification. A catalase test was used to differentiate staphylococci from streptococci, and a coagulase test was performed on catalase-positive cocci to confirm presence of Staphylococcus aureus. Gram-positive and catalase-negative cocci were differentiated by their reaction to the hydrolysis of esculin under ultraviolet light. […]

Streptococcus uberis = experiment: Non-inferiority trial: bacteriological cure, Strep. uberis infections; type: in vivo, cows; conditions: Strep. uberis cases; margin −0.175; 95% CI; FIG. 6
Experimental: as §1, §2

IFN-γ = experiment: Cytokine concentrations in milk of treated cows (ELISA); type: in vivo
Experimental: Once cows were treated, composite milk samples from both treated groups were collected at days 21 and 22 after treatment for SCC and microbiological analyses. Procedures for SCC and microbiology were previously described. Treatment was repeated in cows that remained positive for major Gram-positive bacteria, receiving the same product used for the first treatment 4 days after collecting the second milk sample. A final milk sampling was conducted on all refractory cases 21 and 22 days after the repeated treatment. Individual cow SCC, including laboratory data and pre- and post-treatment concentration of cytokines (IL-1, IL-2, IL-4, IL-6, IL-8, IFN-γ, and TNF-α), were generated for each milk sample. No more than two treatment attempts per cow were performed and used in the study.
Proteins were analyzed in hemoderivatives and whole milk using commercial ELISA development kits from R&D Systems (Minneapolis, Minn., USA) with the exception of […]. PDGF-BB (Human PDGF-BB DuoSet, DY220), TGF-β1 (Human TGF-β1 DuoSet, DY240E), and PF4 (Human CXCL4/PF4 Duoset, DY795), which were determined using human antibodies. […]

**Q.** For `CO/N=C(\C(=O)N[C@@H]1C(=O)N2C(C(=O)[O-])=C(C[n+]3cccc4c3CCCC4)CS[C@H]12)c1csc(N)n1.O=S(=O)(O)O` [cefquinome sulphate], which “Change of mean LnSCC in milk after the start of the trial” value [1] is on record?
**A.** The value was “no differences”.

**Q.** And the “Risk difference for bacteriological cure, non-inferiority interpretation” value ([2]; all cases, margin −0.175, 95% CI, FIG. 6)?
**A.** Its value is “better”.

**Q.** What about the “Overall bacteriological cure, percent of cows” value ([2]; cows with subclinical mastitis, EG n=54, RG n=49) of the same molecule?
**A.** The value was 71%.

**Q.** And the “Overall bacteriological cure, number of cows” value ([2]; cows with subclinical mastitis, intramammary infusion, three consecutive milkings, EG n=54, RG n=49)?
**A.** Its value is 35 cows.

**Q.** What about the “Risk difference for bacteriological cure, non-inferiority interpretation” value (Streptococcus agalactiae; Strep. agalactiae cases, margin −0.175, 95% CI, FIG. 6) of the same molecule?
**A.** The value was “better, although non-inferiority is inconclusive”.

**Q.** And the “Cure risk for Strep. agalactiae” value (Streptococcus agalactiae; in vivo)?
**A.** Its value is 100%.

**Q.** And the “Risk difference for bacteriological cure, non-inferiority interpretation” value (Streptococcus uberis)?
**A.** The value was “better”.

**Q.** What about the “Concentration of IFN-γ in milk, change” value (IFN-γ; by day 47 in cows treated twice) of the same molecule?
**A.** Its value is “increased”.

**Q.** What about the “Concentration of IFN-γ in milk, comparison between groups” value (IFN-γ; days 0 and 22) of the same molecule?
**A.** Its value is “higher”.
